Results taken from US9174980B2, “Heterocyclic compounds as inhibitors of leukotriene production” (Boehringer Ingelheim International GmbH, priority 2012, dated 2015).

Columns and labels:
[1] = molecular target: T1, recombinant human FLAP protein (Homo sapiens, UniProt P20292); experiment: FLAP binding assay (Scintillation Proximity Assay, displacement of [125I]L-691,831); conditions: read-out: Human FLAP SPA Binding (IC50 nM)
T1 construct: made in house; host or cells: Sf9 insect cells (membrane fraction, 100,000 x g pellet)
T1 sequence (P20292 1-161): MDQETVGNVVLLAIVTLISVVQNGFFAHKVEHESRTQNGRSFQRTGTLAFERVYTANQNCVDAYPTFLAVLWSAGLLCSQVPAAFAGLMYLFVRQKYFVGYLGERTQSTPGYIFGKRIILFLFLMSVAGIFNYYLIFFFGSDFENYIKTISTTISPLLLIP
In short: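 Scintillation proximity displacement format: 0.08 nM iodinated MK-591 analog [125I]L-691,831 competes with test compound for human FLAP in sf9 insect-cell membranes (5 μg/well, WGA beads), 2 h with shaking, pH 7.5 Tris buffer. 10 μM cold L-691,831 defines non-specific binding.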

[2] = system: synthesis of LTB4 in human whole blood; experiment: Human whole blood assay (calcimycin-stimulated LTB4 synthesis); format: cell-based; conditions: Homo sapiens; read-out: Human Whole Blood LTB4 Assay for FLAP (IC50 nM)
In short: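 Whole-blood cellular format, heparinized human donors: 15 min compound pretreatment, then 30 min calcimycin stimulation (20 μM final), both at 37° C. Low-speed centrifugation yields plasma, in which LTB4 is read by homogeneous time-resolved fluorescence immunoassay.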

Structure (SMILES) | IC50 [1] [nM] | IC50 [2] [nM]
Nc1ncc(-c2ccc(C3(c4c[nH]c5ccccc45)CCC3)cc2)cn1 [Example 81, 5-{4-[1-(1H-indol-3-yl)cyclobutyl]phenyl}pyrimidin-2-amine] | 5.1 | 370
Nc1ncc(-c2ccc(C3(c4c[nH]c5ccc(F)cc45)CCC3)cc2)cn1 [Example 83, 5-{4-[1-(5-fluoro-1H-indol-3-yl)cyclobutyl]phenyl}pyrimidin-2-amine] | 5 | 460
Nc1ncc(-c2ccc(C3(c4c[nH]c5c(F)cccc45)CCC3)cc2)cn1 [Example 87, 5-{4-[1-(7-fluoro-1H-indol-3-yl)cyclobutyl]phenyl}pyrimidin-2-amine] | 1.6 | 400
Nc1ncc(-c2ccc(C3(c4c[nH]c5ccccc45)CCCC3)cc2)cn1 [Example 88, 5-{4-[1-(1H-indol-3-yl)cyclopentyl]phenyl}pyrimidin-2-amine] | 1.7 | 430
Nc1ncc(-c2ccc(C3(c4c[nH]c5ccccc45)CCCCC3)cc2)cn1 [Example 89, 5-{4-[1-(1H-indol-3-yl)cyclohexyl]phenyl}pyrimidin-2-amine] | 12 | 2200
CCC(C)(c1ccc(-c2cnc(N)nc2)cc1)c1c[nH]c2ccccc12 (stereo not shown) [Example 91, 5-{4-[2-(1H-indol-3-yl)butan-2-yl]phenyl}pyrimidin-2-amine] | 2.7 | 230
Nc1ncc(-c2ccc(C3(c4nc(-c5cccnc5)no4)CCC3)cc2)cn1 [Example 92, 5-(4-{1-[3-(pyridin-3-yl)-1,2,4-oxadiazol-5-yl]cyclobutyl}phenyl)pyrimidin-2-amine] | 9.1 | 840
Nc1ncc(-c2ccc(C3(c4nnc(-c5ccccc5)o4)CCC3)cc2)cn1 [Example 93, 5-{4-[1-(5-phenyl-1,3,4-oxadiazol-2-yl)cyclobutyl]phenyl}pyrimidin-2-amine] | 29 | > 5000
Nc1ncc(-c2ccc(C3(c4nnc(-c5cccnc5)o4)CCC3)cc2)cn1 [Example 94, 5-(4-{1-[5-(pyridin-3-yl)-1,3,4-oxadiazol-2-yl]cyclobutyl}phenyl)pyrimidin-2-amine] | 120 | 2800
Cn1cc(C2(c3ccc(-c4cnc(N)nc4)cc3)CCC2)c2cccnc21 [Example 95, 5-{4-[1-(1-methyl-1H-pyrrolo[2,3-b]pyridin-3-yl)cyclobutyl]phenyl}pyrimidin-2-amine] | 5 | 960
CC(C)C(C)(c1ccc(-c2cnc(N)nc2)cc1)c1nnc(-c2ccccc2)o1 (stereo not shown) [Example 97, 5-{4-[3-methyl-2-(5-phenyl-1,3,4-oxadiazol-2-yl)butan-2-yl]phenyl}pyrimidin-2-amine] | 14 | 4100
COc1cncc(-c2ccc(C(c3ncc(-c4cnc(N)nc4)s3)C(C)C)cc2)c1 (stereo not shown) [Example 100] | 18 | 2100
CC(C)C(C)(c1ccc(-c2cnc(N)nc2)cc1)c1nc(-c2cccnc2)no1 (stereo not shown) [Example 101, 5-(4-{3-methyl-2-[3-(pyridin-3-yl)-1,2,4-oxadiazol-5-yl]butan-2-yl}phenyl)pyrimidin-2-amine] | 12 | 1400
Nc1ncc(-c2ccc(C3(c4nnc(-c5cccnc5)[nH]4)CCC3)cc2)cn1 [Example 102, 5-(4-{1-[5-(pyridin-3-yl)-4H-1,2,4-triazol-3-yl]cyclobutyl}phenyl)pyrimidin-2-amine] | 3.7 | 900
Nc1ncc(-c2ccc(C3(c4c[nH]c5ncccc45)CCC3)cc2)cn1 [Example 103, 5-{4-[1-(1H-pyrrolo[2,3-b]pyridin-3-yl)cyclobutyl]phenyl}pyrimidin-2-amine] | 2.5 | 160
CC(C)C(C)(c1ccc(-c2cnc(N)nc2)cc1)c1nc2ccccc2[nH]1 (stereo not shown) [Example 104, 5-{4-[2-(1H-benzimidazol-2-yl)-3-methylbutan-2-yl]phenyl}pyrimidin-2-amine] | 8.6 | 1900
CN(CCO)C(=O)c1ccc2[nH]cc(C3(c4ccc(-c5cnc(N)nc5)cc4)CCC3)c2c1 [Example 105, 3-{1-[4-(2-aminopyrimidin-5-yl)phenyl]cyclobutyl}-N-(2-hydroxyethyl)-N-methyl-1H-indole-5-carboxamide] | 91 | > 5000
Nc1ncc(-c2ccc(C3(c4c[nH]c5cccnc45)CCC3)cc2)cn1 [Example 108, 5-{4-[1-(1H-pyrrolo[3,2-b]pyridin-3-yl)cyclobutyl]phenyl}pyrimidin-2-amine] | 3 | 360
Nc1ncc(-c2ccc(C3(c4c[nH]c5ccncc45)CCC3)cc2)cn1 [Example 110, 5-{4-[1-(1H-pyrrolo[3,2-c]pyridin-3-yl)cyclobutyl]phenyl}pyrimidin-2-amine] | 87 | 1500
CC(C)C(C)(c1ccc(-c2cnc(N)nc2)cc1)c1nc2ccccc2o1 (stereo not shown) [Example 112, 5-{4-[2-(1,3-benzoxazol-2-yl)-3-methylbutan-2-yl]phenyl}pyrimidin-2-amine] | 3.2 | 570
Nc1ncc(-c2ccc(C3(c4c[nH]c5c(C(=O)N6CCS(=O)(=O)CC6)cccc45)CCC3)cc2)cn1 [Example 114] | 2.3 | 380
CN(CCO)C(=O)c1cccc2c(C3(c4ccc(-c5cnc(N)nc5)cc4)CCC3)c[nH]c12 [Example 115, 3-{1-[4-(2-aminopyrimidin-5-yl)phenyl]cyclobutyl}-N-(2-hydroxyethyl)-N-methyl-1H-indole-7-carboxamide] | 2.6 | 1100

Now those with a lower IC50 [1], led by results:

IC50 [1] [nM] | IC50 [2] [nM] | Structure (SMILES)
0.94 | 160 | Nc1ncc(-c2ccc(C3(c4c[nH]c5cc(F)ccc45)CCC3)cc2)cn1 [Example 82, 5-{4-[1-(6-fluoro-1H-indol-3-yl)cyclobutyl]phenyl}pyrimidin-2-amine]
0.7 | 3000 | CC(C)C(C)(c1ccc(-c2cnc(N)nc2)cc1)c1c[nH]c2c(C(=O)O)cccc12 (stereo not shown) [Example 84, 3-[1-[4-(2-aminopyrimidin-5-yl)phenyl]-1,2-dimethyl-propyl]-1H-indole-7-carboxylic acid]
0.97 | 300 | CC(C)C(C)(c1ccc(-c2cnc(N)nc2)cc1)c1c[nH]c2cc(S(C)(=O)=O)ccc12 (stereo not shown) [Example 85, 5-(4-{3-methyl-2-[6-(methylsulfonyl)-1H-indol-3-yl]butan-2-yl}phenyl)pyrimidin-2-amine]
1.4 | 230 | Cc1[nH]c2ccccc2c1C(C)(c1ccc(-c2cnc(N)nc2)cc1)C(C)C (stereo not shown) [Example 86, 5-{4-[3-methyl-2-(2-methyl-1H-indol-3-yl)butan-2-yl]phenyl}pyrimidin-2-amine]
0.75 | 170 | CS(=O)(=O)c1ccc2c(C3(c4ccc(-c5cnc(N)nc5)cc4)CCC3)c[nH]c2c1 [Example 90, 5-(4-{1-[6-(methylsulfonyl)-1H-indol-3-yl]cyclobutyl}phenyl)pyrimidin-2-amine]
1.4 | 240 | CC(C)C(C)(c1ccc(-c2cnc(N)nc2)cc1)c1n[nH]c(-c2ccccc2)n1 (stereo not shown) [Example 96, 5-{4-[3-methyl-2-(5-phenyl-1H-1,2,4-triazol-3-yl)butan-2-yl]phenyl}pyrimidin-2-amine]
0.6 | 360 | CC(C)C(C)(c1ccc(-c2cnc(N)nc2)cc1)c1c[nH]c2c(C(=O)N3CCC(O)C3)cccc12 (stereo not shown) [Example 98, (3-{2-[4-(2-aminopyrimidin-5-yl)phenyl]-3-methylbutan-2-yl}-1H-indol-7-yl)(3-hydroxypyrrolidin-1-yl)methanone]
0.93 | 1600 | CC(C)C(C)(c1ccc(-c2cnc(N)nc2)cc1)c1c[nH]c2c(C(=O)N(C)CCO)cccc12 (stereo not shown) [Example 99, 3-[1-[4-(2-aminopyrimidin-5-yl)phenyl]-1,2-dimethyl-propyl]-N-(2-hydroxyethyl)-N-methyl-1H-indole-7-carboxamide]
0.91 | 4100 | Nc1ncc(-c2ccc(C3(c4c[nH]c5cc(C(=O)N6CCC(O)C6)ccc45)CCC3)cc2)cn1 (stereo not shown) [Example 106, (3-{1-[4-(2-aminopyrimidin-5-yl)phenyl]cyclobutyl}-1H-indol-6-yl)(3-hydroxypyrrolidin-1-yl)methanone]
1.2 | 180 | Nc1ncc(-c2ccc(C3(c4c[nH]c5c(C(=O)N6CCC(O)C6)cccc45)CCC3)cc2)cn1 (stereo not shown) [Example 107, (3-{1-[4-(2-aminopyrimidin-5-yl)phenyl]cyclobutyl}-1H-indol-7-yl)(3-hydroxypyrrolidin-1-yl)methanone]
1.3 | 71 | Nc1ncc(-c2ccc(C3(c4c[nH]c5cnccc45)CCC3)cc2)cn1 [Example 109, 5-{4-[1-(1H-pyrrolo[2,3-c]pyridin-3-yl)cyclobutyl]phenyl}pyrimidin-2-amine]
1.5 | > 5000 | Nc1ncc(-c2ccc(C3(c4cn(CCO)c5ccccc45)CCC3)cc2)cn1 [Example 111, 2-(3-{1-[4-(2-aminopyrimidin-5-yl)phenyl]cyclobutyl}-1H-indol-1-yl)ethanol]
1.1 | 100 | Nc1ncc(-c2ccc(C3(c4c[nH]c5c(C(=O)N6CC(O)C6)cccc45)CCC3)cc2)cn1 [Example 113, (3-{1-[4-(2-aminopyrimidin-5-yl)phenyl]cyclobutyl}-1H-indol-7-yl)(3-hydroxyazetidin-1-yl)methanone]
